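All cell lines were grown in 96-well plates and treated with compound for 48 hours. GI50 marks 50% less growth.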 Calls of active or inactive are those of the source. Rule as the data show it: active = GI50 up to about 1.1 µM and inactive = higher.
How the values were obtained:
Assay in all cases: NCI anticancer screen, dose series, 48 h
A549 = system: A549
786-0 = system: 786-0
SF-295 = system: SF-295
SW-620 = system: SW-620
SNB-78 = system: SNB-78
NCI-H23 = system: NCI-H23
TK-10 = system: TK-10
OVCAR-4 = system: OVCAR-4
RPMI-8226 = system: RPMI-8226
KM12 = system: KM12
SNB-75 = system: SNB-75
HCT-15 = system: HCT-15
SK-MEL-2 = system: SK-MEL-2
SF-268 = system: SF-268
LOX IMVI = system: LOX IMVI
HCC 2998 = system: HCC 2998
DLD-1 = system: DLD-1
OVCAR-5 = system: OVCAR-5
HCT-116 = system: HCT-116
NCI-H522 = system: NCI-H522
ACHN = system: ACHN
M19-MEL = system: M19-MEL
DMS-114 = system: DMS-114
NCI-H460 = system: NCI-H460
OVCAR-8 = system: OVCAR-8
MOLT-4 = system: MOLT-4
A498 = system: A498
HL-60 = system: HL-60
SK-MEL-28 = system: SK-MEL-28
NCI-H226 = system: NCI-H226
K562 = system: K562
RXF 393 = system: RXF 393
HOP-92 = system: HOP-92
UACC-257 = system: UACC-257
UO-31 = system: UO-31
HT-29 = system: HT-29
CAKI-1 = system: CAKI-1
SN12C = system: SN12C
COLO 205 = system: COLO 205
RXF 631 = system: RXF 631
LXFL 529 = system: LXFL 529
Malme-3M = system: Malme-3M
DMS-273 = system: DMS-273
U-251 = system: U-251
HOP-62 = system: HOP-62
IGROV-1 = system: IGROV-1
OVCAR-3 = system: OVCAR-3
SF-539 = system: SF-539
CCRF-CEM = system: CCRF-CEM
KM-20L2 = system: KM-20L2
M14 = system: M14
UACC-62 = system: UACC-62
SK-MEL-5 = system: SK-MEL-5
EKVX = system: EKVX
HOP-18 = system: HOP-18
SNB-19 = system: SNB-19
XF498 = system: XF498
SK-OV-3 = system: SK-OV-3
SR = system: SR

SMILES: O=C(N/C(=C\c1ccc(/C=C(\NC(=O)c2ccccc2)c2nc3ccccc3s2)cc1)c1nc2ccccc2s1)c1ccccc1
- GI50 (A549): 13.5 µM (inactive)
- GI50 (786-0): 1.82 µM (inactive)
- GI50 (SF-295): 4.5 µM (inactive)
- GI50 (SW-620): 3.84 µM (inactive)
- GI50 (SNB-78): 20.8 µM (inactive)
- GI50 (NCI-H23): 11.6 µM (inactive)
- GI50 (TK-10): 12.7 µM (inactive)
- GI50 (OVCAR-4): 5.08 µM (inactive)
- GI50 (RPMI-8226): 3.64 µM (inactive)
- GI50 (KM12): 8.45 µM (inactive)
- GI50 (SNB-75): 5.48 µM (inactive)
- GI50 (HCT-15): 4.6 µM
- GI50 (SK-MEL-2): 6.62 µM (inactive)
- GI50 (SF-268): 6.3 µM (inactive)
- GI50 (LOX IMVI): 4.21 µM (inactive)
- GI50 (HCC 2998): 14.7 µM (inactive)
- GI50 (DLD-1): 3.28 µM (inactive)
- GI50 (OVCAR-5): 17.2 µM (inactive)
- GI50 (HCT-116): 8.2 µM (inactive)
- GI50 (NCI-H522): 2.13 µM (inactive)
- GI50 (ACHN): 4.59 µM (inactive)
- GI50 (M19-MEL): 4.72 µM (inactive)
- GI50 (DMS-114): 11.4 µM (inactive)
- GI50 (NCI-H460): 4.25 µM (inactive)
- GI50 (OVCAR-8): 2.34 µM (inactive)
- GI50 (MOLT-4): 4.99 µM (inactive)
- GI50 (A498): 17.1 µM (inactive)
- GI50 (HL-60): 1.71 µM (inactive)
- GI50 (SK-MEL-28): 11.1 µM (inactive)
- GI50 (NCI-H226): 19.1 µM (inactive)
- GI50 (K562): 5.38 µM (inactive)
- GI50 (RXF 393): 17.7 µM (inactive)
- GI50 (HOP-92): 12.5 µM (inactive)
- GI50 (UACC-257): 5.18 µM (inactive)
- GI50 (UO-31): 2.86 µM (inactive)
- GI50 (HT-29): 3.73 µM (inactive)
- GI50 (CAKI-1): 14.9 µM (inactive)
- GI50 (SN12C): 3.99 µM (inactive)
- GI50 (COLO 205): 5.12 µM (inactive)
- GI50 (RXF 631): 7.96 µM (inactive)
- GI50 (LXFL 529): 2.98 µM (inactive)
- GI50 (Malme-3M): 11.9 µM (inactive)
- GI50 (DMS-273): 3.71 µM (inactive)
- GI50 (U-251): 2.59 µM (inactive)
- GI50 (HOP-62): 18.4 µM (inactive)
- GI50 (IGROV-1): 3.85 µM (inactive)
- GI50 (OVCAR-3): 2.78 µM (inactive)
- GI50 (SF-539): 2.14 µM (inactive)
- GI50 (CCRF-CEM): 1.56 µM (inactive)
- GI50 (KM-20L2): 2.19 µM (inactive)
- GI50 (M14): 3.42 µM (inactive)
- GI50 (UACC-62): 2.37 µM (inactive)
- GI50 (SK-MEL-5): 4.88 µM (inactive)
- GI50 (EKVX): 1.83 µM (inactive)
- GI50 (HOP-18): 13.2 µM (inactive)
- GI50 (SNB-19): 4.09 µM (inactive)

SMILES: CC1=Nc2ccccc2C1C(Cc1ccccc1N)c1c(C)[nH]c2ccccc12 (centres undefined)
- GI50 (A549): 18.3 µM (inactive)
- GI50 (786-0): 15.1 µM (inactive)
- GI50 (XF498): 18.5 µM (inactive)
- GI50 (SF-295): 12.6 µM (inactive)
- GI50 (SW-620): 15.5 µM (inactive)
- GI50 (NCI-H23): 18.2 µM (inactive)
- GI50 (TK-10): 16.9 µM (inactive)
- GI50 (RPMI-8226): 18.5 µM (inactive)
- GI50 (KM12): 16.6 µM (inactive)
- GI50 (SNB-75): 17.5 µM (inactive)
- GI50 (HCT-15): 16.4 µM
- GI50 (SK-MEL-2): 5.92 µM (inactive)
- GI50 (SF-268): 8.17 µM (inactive)
- GI50 (LOX IMVI): 15 µM (inactive)
- GI50 (HCC 2998): 15.4 µM (inactive)
- GI50 (DLD-1): 18.2 µM (inactive)
- GI50 (OVCAR-5): 17.6 µM (inactive)
- GI50 (HCT-116): 16.9 µM (inactive)
- GI50 (NCI-H522): 14 µM (inactive)
- GI50 (SK-OV-3): 24.6 µM (inactive)
- GI50 (ACHN): 15.2 µM (inactive)
- GI50 (M19-MEL): 17.4 µM (inactive)
- GI50 (DMS-114): 19.2 µM (inactive)
- GI50 (NCI-H460): 17.2 µM (inactive)
- GI50 (OVCAR-8): 16.6 µM (inactive)
- GI50 (MOLT-4): 20.9 µM (inactive)
- GI50 (A498): 16 µM (inactive)
- GI50 (HL-60): 14 µM (inactive)
- GI50 (SK-MEL-28): 18.8 µM (inactive)
- GI50 (NCI-H226): 15 µM (inactive)
- GI50 (K562): 19.5 µM (inactive)
- GI50 (RXF 393): 20.2 µM (inactive)
- GI50 (HOP-92): 12.3 µM (inactive)
- GI50 (UACC-257): 17.8 µM (inactive)
- GI50 (UO-31): 14.7 µM (inactive)
- GI50 (SR): 21.9 µM (inactive)
- GI50 (HT-29): 17.8 µM (inactive)
- GI50 (SN12C): 18.7 µM (inactive)
- GI50 (COLO 205): 16.6 µM (inactive)
- GI50 (RXF 631): 18.2 µM (inactive)
- GI50 (LXFL 529): 16 µM (inactive)
- GI50 (Malme-3M): 17.3 µM (inactive)
- GI50 (U-251): 16.8 µM (inactive)
- GI50 (HOP-62): 14.4 µM (inactive)
- GI50 (IGROV-1): 17.4 µM (inactive)
- GI50 (OVCAR-3): 15.1 µM (inactive)
- GI50 (SF-539): 17.6 µM (inactive)
- GI50 (CCRF-CEM): 17.7 µM (inactive)
- GI50 (KM-20L2): 15 µM (inactive)
- GI50 (M14): 15 µM (inactive)
- GI50 (UACC-62): 13.5 µM (inactive)
- GI50 (SK-MEL-5): 14.6 µM (inactive)
- GI50 (EKVX): 20.5 µM (inactive)
- GI50 (HOP-18): 12.4 µM (inactive)
- GI50 (SNB-19): 22.7 µM (inactive)

SMILES: Cc1nc(-n2nc(-c3ccccc3)cc2-c2ccccc2)sc1C(=O)CC(=O)C(=O)Nc1ccc(O)cc1
- GI50 (A549): > 100 µM (inactive)
- GI50 (786-0): > 100 µM (inactive)
- GI50 (SF-295): > 100 µM (inactive)
- GI50 (SW-620): > 100 µM (inactive)
- GI50 (SNB-78): > 100 µM (inactive)
- GI50 (NCI-H23): > 100 µM (inactive)
- GI50 (TK-10): > 100 µM (inactive)
- GI50 (OVCAR-4): > 100 µM (inactive)
- GI50 (RPMI-8226): > 100 µM (inactive)
- GI50 (KM12): > 100 µM (inactive)
- GI50 (SNB-75): > 100 µM (inactive)
- GI50 (HCT-15): > 100 µM
- GI50 (SK-MEL-2): > 100 µM (inactive)
- GI50 (SF-268): > 100 µM (inactive)
- GI50 (LOX IMVI): > 100 µM (inactive)
- GI50 (HCC 2998): > 100 µM (inactive)
- GI50 (DLD-1): > 100 µM (inactive)
- GI50 (OVCAR-5): > 100 µM (inactive)
- GI50 (HCT-116): > 100 µM (inactive)
- GI50 (NCI-H522): > 100 µM (inactive)
- GI50 (SK-OV-3): > 100 µM (inactive)
- GI50 (ACHN): > 100 µM (inactive)
- GI50 (DMS-114): > 100 µM (inactive)
- GI50 (OVCAR-8): > 100 µM (inactive)
- GI50 (MOLT-4): > 100 µM (inactive)
- GI50 (A498): > 100 µM (inactive)
- GI50 (HL-60): > 100 µM (inactive)
- GI50 (NCI-H226): > 100 µM (inactive)
- GI50 (K562): > 100 µM (inactive)
- GI50 (RXF 393): > 100 µM (inactive)
- GI50 (UACC-257): > 100 µM (inactive)
- GI50 (UO-31): > 100 µM (inactive)
- GI50 (SR): > 100 µM (inactive)
- GI50 (HT-29): > 100 µM (inactive)
- GI50 (CAKI-1): > 100 µM (inactive)
- GI50 (SN12C): > 100 µM (inactive)
- GI50 (COLO 205): > 100 µM (inactive)
- GI50 (RXF 631): > 100 µM (inactive)
- GI50 (LXFL 529): > 100 µM (inactive)
- GI50 (Malme-3M): > 100 µM (inactive)
- GI50 (DMS-273): > 100 µM (inactive)
- GI50 (U-251): > 100 µM (inactive)
- GI50 (HOP-62): > 100 µM (inactive)
- GI50 (IGROV-1): > 100 µM (inactive)
- GI50 (OVCAR-3): > 100 µM (inactive)
- GI50 (SF-539): > 100 µM (inactive)
- GI50 (CCRF-CEM): > 100 µM (inactive)
- GI50 (KM-20L2): > 100 µM (inactive)
- GI50 (M14): > 100 µM (inactive)
- GI50 (UACC-62): > 100 µM (inactive)
- GI50 (EKVX): > 100 µM (inactive)
- GI50 (HOP-18): > 100 µM (inactive)
- GI50 (SNB-19): > 100 µM (inactive)
